# Laboratory results published in patent EP3428169A1, “6,6A-DIHYDRO FURO[3,2-B]FURAN-2-(5H)ONE DERIVATIVES, THEIR PREPARATION AND USE FOR TREATING TUMORS” (Universita' Della Calabria, priority 2017, dated 2019).
# Tests used:
# 3T3-L1 cells = assay: Cell viability assay: MTT test, non-tumour cells; format: cell-based, mouse; conditions: 72 h treatment; for reduction in cell viability of 3T3-L1 cells (in words): 1-40 µM; for concentration(s) giving inhibitory effect on viability of 3T3-L1 cells: tested at 1, 5, 10, 20, 40 µM
# Method: (§1) All cell lines were obtained from the American Type Culture Collection (ATCC, Manassas, VA, USA). The human mammary adenocarcinoma cells (MCF-7) were cultured in DMEM-F12 (Dulbecco's Modified Eagle's Medium (DME) and Ham's F-12 Nutrient Mixture) containing 5% newborn calf serum (NCS), 1% glutamine, 1% penicillin/streptomycin (Sigma-Aldrich, Milan, Italy). The TNBC cells (MDA-MB-231 and MDA-MB-468) were cultured in DMEM-F12 containing 10% heat-inactivated foetal bovine serum (FBS), 1% glutamine, 1% penicillin/streptomycin (Sigma-Aldrich, Milan, Italy). The 3T3L- cells 1 (immortalised mouse fibroblasts) were cultured in DMEM (Dulbecco's Modified Eagle's medium) containing 10% heat-inactivated foetal bovine serum (FBS) and 1% penicillin/streptomycin (Sigma-Aldrich, Milan, Italy). The human mammary epithelial cells MCF-10A were maintained in DMEM-F12 with 5% horse serum (HS), 1% glutamine, 1% penicillin/streptomycin, 5 µg/ml of insulin, 0.25 mg/ml of hydrocortisone, 20 ng/ml of hEGF (human epidermal growth factor) and 0.05 mg/ml of cholera enterotoxin (Sigma-Aldrich, Milan, Italy).
# (§2) All cell lines were maintained at 37°C in a 5% CO2 humidified atmosphere and periodically screened for mycoplasma contamination.
# (§3) Cell viability was evaluated using a colorimetric assay which exploits the conversion, by the mitochondrial enzyme succinate dehydrogenase (SDH), of the bromide reagent of 3-(4,5-dimethylthiazol-2-il)-2,5-diphenyltetrazole (MTT) (Sigma-Aldrich, Milan, Italy) into crystals of a product called formazan (blue-coloured).
# (§4) The cells were seeded in 48-well plates (25,000 cells/well), cultured for 72h in a complete medium before being treated for 72h with different doses (1, 5, 10, 20, 40 µM) of compounds A1, A2, A3, A4 and A5. At the end of the treatment the cells were incubated in darkness for 3h with 50 µl of a solution of MTT in PBS (2 mg/ml). The MTT solution was then carefully removed and the formazan salts that had formed were solubilised by adding 200 µl of DMSO (dimethyl sulphoxide) (Sigma-Aldrich, Milan, Italy), which imparts a pinkish colour to the solution. The coloured product was detected with the spectrophotometric method, by reading absorbance at the wavelength of 570 nm.
# (§5) Cell viability was evaluated with the MTT colorimetric assay as described above.
# MDA-MB-231 cells = assay: Cell viability assay: MTT test; format: cell-based; conditions: for minimal effective concentration: Homo sapiens, MDA-MB-231, 72 h treatment, tested at 1, 5, 10, 20, 40 µM, p<0.05 vs untreated, read-out: concentration(s) giving significant reduction in the viability of MDA-MB-231 cells
# MCF-7 cells = assay: Cell viability assay: MTT test; format: cell-based, human; conditions: for minimal effective concentration: Homo sapiens, MCF7, 72 h treatment, tested at 1, 5, 10, 20, 40 µM, p<0.05 vs untreated, read-out: concentration(s) giving significant reduction in the viability of MCF-7 cells
# MDA-MB-468 cells = assay: Cell viability assay: MTT test; format: cell-based; conditions: for minimal effective concentration: Homo sapiens, MDA-MB-468, 72 h treatment, tested at 1, 5, 10, 20, 40 µM, p<0.05 vs untreated, read-out: concentration(s) giving significant reduction in the viability of MDA-MB-468 cells
# MCF-10A cells = assay: Cell viability assay: MTT test, non-tumour cells; format: cell-based, human; conditions: 72 h treatment; for reduction in cell viability of MCF-10A cells (in words): 1-40 µM; for concentration(s) giving inhibitory effect on viability of MCF-10A cells: tested at 1, 5, 10, 20, 40 µM
# Method: as §1, §2, §3, §4, §5
# parp-1 protein = assay: Western blot analysis of cleavage/inactivation of parp-1; format: cell-based, human; conditions: 20 µM, 48h
# Method: The MCF-7, MDA-MB-231 and MDA-MB-468 cells were cultured in a complete medium for 72h in 60 mm plates (1 x 10^6 cells) before being treated for 48h with compound A4 (20 µM). After the treatment the cells were lysed in ice with RIPA (Radio-Immune Precipitation Assay) buffer (50 mM Tris HCI, pH 8.0, 150 mM NaCl, 1% NP-40, 0.5% sodium deoxycholate, 0.1% SDS, sodium dodecyl sulphate), containing protease inhibitors (1 mM phenylmethylsulphonyl fluoride (PMSF), 1mM sodium orthovanadate, 20 µM aprotinin, 20 µM leupeptin) for protein extraction. The lysates were maintained under ice for 10 minutes, then centrifuged for 10 minutes at 13000 rpm at 4°C. The protein content present in the supernatant was determined spectrophotometrically using the Bradford method. The proteins were separated, based on their molecular weight, in a sodium dodecyl sulphate-polyacrylamide gel (12%) (SDS-PAGE) and then transferred onto a nitrocellulose membrane. […]
# In order to be able to visualise the interaction between the primary antibody and the protein of interest, the membranes were incubated for 1 hour at room temperature, after washing with TBS-T 1X three times in order to remove any traces of the primary antibody, with a specific secondary antibody conjugated to the enzyme horseradish peroxidase (HRP) and directed against the constant portion of the primary antibody. […] In order to normalise the result, the various membranes were hot stripped for 30 minutes at 50°C with a stripping buffer (62.5 mM Tris-HCI pH 6.7, 2% SDS, 100mM β-mercaptoethanoi) and re-incubated overnight with the antibody anti-glyceraldehyde 3-phosphate dehydrogenase (GAPDH) (1: 1000) (Santa Cruz Biotechnology, Santa Cruz, CA, USA) used as a control for the quantities of proteins loaded.
# bcl-2 protein = assay: Western blot analysis of expression of anti-apoptotic bcl-2; format: cell-based, human; conditions: 20 µM, 48h
# Method: (§6) A further confirmation of the ability of the compound of formula A4 to induce the death, by apoptosis, of MCF-7, MDA-MB231 and MDA-MB468 tumour cells was given by the evaluation, through western blot analysis, of its effect on the expression of the anti-apoptotic bcl-2 protein and on the appearance of cytochrome c in the cytosolic compartment.
# (§7) The cells were cultured in a complete medium for 72 h in 60 mm plates (1 x 10^6 cells) before being treated for 48h with compound A4 (20 µM) in order to evaluate the protein expression of bcl-2 and the expression of the cytochrome c present in the cytosolic protein fraction.
# For an analysis of the protein expression of bcl-2, after treatment the cells were lysed in ice with RIPA (Radio-Immune Precipitation Assay) buffer (50 mM Tris HCI, pH 8.0, 150 mM NaCl, 1% NP-40, 0.5% sodium deoxycholate, 0.1% SDS, sodium dodecyl sulphate), containing protease inhibitors (1 mM phenylmethylsulphonyl fluoride (PMSF), 1mM sodium orthovanadate, 20 µM aprotinin, 20 µM leupeptin) for protein extraction. The lysates were maintained under ice for 10 minutes, then centrifuged for 10 minutes at 13000 rpm at 4°C. The protein content present in the supernatant was determined spectrophotometrically using the Bradford method. The proteins were separated, based on their molecular weight, in a sodium dodecyl sulphate-polyacrylamide gel (12%) (SDS-PAGE) and then subjected to a western blot analysis as described above, using a specific primary anti-bcl-2 antibody (1:500) (Santa Cruz Biotechnology, Santa Cruz, CA, USA).
# cytochrome c = assay: Western blot analysis of cytochrome c in the cytosolic protein fraction; format: cell-based, human; conditions: 20 µM, 48h
# Method: as §6, §7
# For the purpose of analysing the protein expression of the cytochrome c present in the cytosolic fraction, after treatment the cells were collected by centrifugation at 2500 rpm for 10 minutes at 4°C. The pellets were resuspended in 50 µl of sucrose buffer (250 mM sucrose, 10 mM Hepes, 10 mM KCl, 1.5 mM MgCl2, 1 mM EDTA, 1 mM EGTA) (Sigma-Aldrich, Milan, Italy) containing 20µM of aprotinin, 20 µM of leupeptin, 1mM of PMSF and 0.05% of digitonin (Sigma-Aldrich, Milan, Italy).
# The cells were incubated for 20 minutes at 4°C and then centrifuged at 13000 rpm for 15 minutes at 4°C. The protein content present in the supernatant was determined spectrophotometrically using the Bradford method. The proteins were separated, based on their molecular weight, in a sodium dodecyl sulphate-polyacrylamide gel (15%) (SDS-PAGE) and then subjected to a western blot analysis as described above, using a specific primary anti-cytochrome c antibody (1:1000) (Santa Cruz Biotechnology, Santa Cruz, CA, USA).
Structure (SMILES),reduction in cell viability of 3T3-L1 cells (in words) (3T3-L1 cells),concentration(s) giving inhibitory effect on viability of 3T3-L1 cells (3T3-L1 cells) [µM],minimal effective concentration (MDA-MB-231 cells) [µM],minimal effective concentration (MCF-7 cells) [µM],minimal effective concentration (MDA-MB-468 cells) [µM],reduction in cell viability of MCF-10A cells (in words) (MCF-10A cells),concentration(s) giving inhibitory effect on viability of MCF-10A cells (MCF-10A cells) [µM],cleavage of the parp-1 protein (parp-1 protein; MCF-7 cells),cleavage of the parp-1 protein (parp-1 protein; MDA-MB-231 cells),cleavage of the parp-1 protein (parp-1 protein; MDA-MB-468 cells),expression of bcl-2 (bcl-2 protein; MCF-7 cells),expression of bcl-2 (bcl-2 protein; MDA-MB-231 cells),expression of bcl-2 (bcl-2 protein; MDA-MB-468 cells),level of cytochrome c in the cytosolic fraction (cytochrome c; MCF-7 cells),level of cytochrome c in the cytosolic fraction (cytochrome c; MDA-MB-231 cells),level of cytochrome c in the cytosolic fraction (cytochrome c; MDA-MB-468 cells),"effect on the viability of MDA-MB-231 cells (in words) (MDA-MB-231 cells; 72 h treatment, 1-40 µM)","effect on the viability of MCF-7 cells (in words) (MCF-7 cells; 72 h treatment, 1-40 µM)","effect on the viability of MDA-MB-468 cells (in words) (MDA-MB-468 cells; 72 h treatment, 1-40 µM)"
"CC1(C)CC2(C)OC(=O)C(c3ccccc3)=C2O1 (stereo not shown) [Compound A1, 5,5,6a-trimethyl-3-phenyl-6,6a-dihydrofuro[3,2-b]furan-2(5H)-one]",more substantial,40,≥ 10,≥ 10,≥ 5,more substantial,≥ 20,–,–,–,–,–,–,–,–,–,–,–,–
"CC1(C)CC2(C)OC(=O)C([Si](C)(C)C)=C2O1 (stereo not shown) [Compound A2, 5,5,6a-trimethyl-3-(trimethylsilyl)-6,6a-dihydrofuro[3,2-b]furan-2(5H)-one]",modest,≥ 20,≥ 1,≥ 1,≥ 1,modest,≥ 5,–,–,–,–,–,–,–,–,–,–,–,–
"CC12CCOC1=C([Si](C)(C)C)C(=O)O2 (stereo not shown) [Compound A3, 6a-methyl-3-(trimethylsilyl)-6,6a-dihydrofuro[3,2-b]furan-2(5H)-one]",more substantial,40,≥ 5,≥ 10,≥ 5,more substantial,≥ 10,–,–,–,–,–,–,–,–,–,–,–,–
"CC1(C)CC2(c3ccccc3)OC(=O)C([Si](C)(C)C)=C2O1 (stereo not shown) [Compound A4, 5,5-dimethyl-6a-phenyl-3-(trimethylsilyl)-6,6a-dihydrofuro[3,2-b]furan-2(5H)-one]",not influenced,–,10 to 40,1 to 40,10 to 40,not influenced,–,the cleaved form of the parp-1 protein may be seen,the cleaved form of the parp-1 protein may be seen,the cleaved form of the parp-1 protein may be seen,decreasing the expression of bcl-2,decreasing the expression of bcl-2,decreasing the expression of bcl-2,increased to a significant degree,increased to a significant degree,increased to a significant degree,–,–,–
"CC1(C)CC2(c3ccccc3)OC(=O)C=C2O1 (stereo not shown) [Compound A5, 5,5-dimethyl-6a-phenyl-6,6a-dihydrofuro[3,2-b]furan-2(5H)-one]",not influenced,–,20 to 40,5 to 40,10 to 40,not influenced,–,–,–,–,–,–,–,–,–,–,modest but significant effect,modest but significant effect,slightly more effective
